Measurements from patent US20080293931A1, “Methods and compositions for the removal of nucleic acid amplification inhibitors” (priority 2006, published 2008).
Values joined by “and” are separate entries in the source; they are usually repeats but may differ in a detail not shown here. Identical values can stand only once. Counter-ions that a name gives are not always drawn. Like-named read-outs stand apart in the source and are kept apart here.

Experiments:
[1] = Stability of PIR compound in aqueous solution
[2] = Humic acid (HA) removal from aqueous commercial HA solutions by PIR compounds, fluorimetric HA determination; details: for performance as PIR compound (in words): commercial humic acid solutions
Description: Humic solutions were in 1×TAE buffer at RT with pH˜7. […] Samples from PIR experiments utilizing these materials were diluted, using 1×TAE, to concentrations falling within the linear response region representative of the humic material used.
In this study, when samples were interrogated for humic acid concentrations via fluorimetry, known concentrations of commercial humic acids were compared to known concentrations of humic standards.
FIG. 1 compares the HA removal from samples containing DNA of interest to the molar concentration of varied PIR compounds by plotting an HA reduction factor as the initial [HA] divided by [HA] following treatment with PIR compounds. The commercially available PIR kit, from Mo-BIO, is placed on FIG. 1 for comparison and was arbitrarily assigned a molar concentration of 1 for convenience. […] The data shown in FIG. 1 were generated from varied initial [HA], ranging from ˜5,000 to 300,000 mg/L HA. These varied initial [HA] values represent a “worst case” scenario and these are in comparison to initial [HA] in extractions from problematic soils generating humic acid concentrations typically less than 5,000 mg/L.
FIG. 2 plots the data from the same experiments represented in FIG. 1, but applying a different approach for data metric. FIG. 2 plots a dimensionless HA removal efficiency (or efficacy) value versus the decade of dilution necessary for successful PCR. The efficiency of HA removal is defined in equation 1 as the initial [HA] minus the final [HA] divided by the initial [HA]. This is essentially a percent removal approach.
Efficiency=[HA]i−[HA]f/[HA]; (1)
To further discriminate efficiency values greater than 0.99, the efficiency was subtracted from the integer value of 1, and the −log was taken of 1-efficiency to generate a non-negative value indicative of HA removal efficiency with greater level of discrimination and resolution of values with high degrees of HA removal. This is described by equation 2.

[3] = Humic acid removal from soil extracts (Los Alamos Airport Soil) by PIR compounds; details: 100 mM PIR, HA 7,600 mg/L
Description: Aqueous samples of humic solutions were interrogated via fluorimetry on a Jobin Jvon Spex Fluorolog II with an excitation wavelength of 471 nm, an emission wavelength of 529 nm, with slits @ 10 nm bandpass, pmt bias of 950V, 1 second integration per reading and 10 readings per sample or <0.1% RSD per sample. Humic solutions were in 1×TAE buffer at RT with pH˜7. […] Samples from PIR experiments utilizing these materials were diluted, using 1×TAE, to concentrations falling within the linear response region representative of the humic material used.

seeded E. coli DNA = assay: PCR after PIR treatment of soil extracts (dilution to achieve PCR); details: for dilution decade at which PCR is achieved, on average: 100 mM PIR, soil extracts (Los Alamos Airport Soil)
E. coli DNA = assay: PCR of seeded E. coli DNA after PIR treatment of aqueous HA samples (decade of dilution necessary for successful PCR); details: for Typical dilution decade for PCR / range of dilutions (dilution decade for PCR): PIR 1 M, aqueous humic samples seeded with E. coli DNA, HAi avg 6,500-12,300 depending on compound (Table 6 c2)
Description: Consideration of dilution factors for successful PCR must also be reviewed. In untreated soil extracts containing DNA of interest, successful PCR of the extracted DNA may occur when the polymerase inhibitor is diluted sufficiently such that inhibition is suppressed and PCR may occur. Typical values for the dilution decade at which PCR is successful in samples containing humic materials and DNA of interest are often around decade four (1×10^4). Accordingly, a dilution factor of 10,000 would be necessary for successful PCR in a typical soil extract/sample. This magnitude of dilution may also impact PCR sensitivity for DNA/species already present at low concentrations and result in not identifying an organism that was present in the original sample extract.
Using this approach for presenting the HA removal data allows for the determination of a PIR compound's effectiveness for HA removal (ε) and compatibility for application in PCR systems via dilution data for PCR.

B. anthracis Sterne DNA = details: PIR (thiamine) treated; for B. anthracis per rxn: at 1st positive dilution; for 1st DNA dilution with positive PCR: spiked with B. anthracis Sterne DNA
[4] = PIR 1 M, aqueous humic samples seeded with E. coli DNA, HAi avg 6,500-12,300 depending on compound (Table 6 c2)

## O=C(C[n+]1ccsc1)c1ccc([N+](=O)[O-])cc1.[Br-] [PTB-NO2, 4-Nitro-Phenacyl Thiazolium Bromide]
[1]
  stability in aqueous solutions: not stable
[1]; aqueous solutions
  time to orange/red precipitate following dissolution: approximately 1 hour
[2]
  performance as PIR compound (in words): did not perform well
[2]; listed as PTB-N
  performance as PIR compound (in words): poor performance

## Cc1ncc(C[n+]2csc(CCO)c2C)c(N)n1 [THI, Thiamine Hydrochloride]
[3]
  average efficiency values: 1.4
  average reduction factors: 45
Bacterial 16S rDNA
  improvement of purity of DNA samples: two orders of magnitude
  increase in purity of soil DNA extract: ≥ 10 fold
Bacterial 16S rDNA; Hydrochloride
  1st DNA dilution with positive PCR: 10^−2 and 10^−1
  DNA dilution with positive PCR: 10^0 and 10^−1
Seeded E. coli DNA
  dilution decade at which PCR is achieved, on average: 1.8
E. coli DNA
  Typical dilution decade for PCR: 0
  range of dilutions (dilution decade for PCR): 0-3
B. anthracis Sterne DNA; soil “A”
  B. anthracis per rxn: ~10^4 cell equivalents
  1st DNA dilution with positive PCR: 10^0
B. anthracis Sterne DNA; soil “B”
  B. anthracis per rxn: ~10^4 cell equivalents
  1st DNA dilution with positive PCR: 10^0
B. anthracis Sterne DNA; soil “C”
  B. anthracis per rxn: ~10^4 cell equivalents
  1st DNA dilution with positive PCR: 10^0
[2]; [4]
  Average Efficiency, ε: 2.13
  Avg Reduction Factor: 258

## Cc1ncc(CO)c(CN)c1O [PDA, Pyridoxamine]
Seeded E. coli DNA
  dilution decade at which PCR is achieved, on average: 1.0
Seeded E. coli DNA; PIR treated soil samples
  PCR products following gel electrophoresis (band intensity): typically weak
E. coli DNA; 1M PDA in phosphate buffer, 30 days storage, 4 C., dark, HA avg ~10,000 mg/L
  Decade of dilution: 0
E. coli DNA; 1M PDA in phosphate buffer, 30 days storage, 25 C., dark, HA avg ~10,000 mg/L
  Decade of dilution: 0
E. coli DNA; 1M PDA in phosphate buffer, 30 days storage, 25 C., light, HA avg ~10,000 mg/L
  Decade of dilution: 0
E. coli DNA; 1M PDA in phosphate buffer, 30 days storage, −20 C., dark, HA avg ~10,000 mg/L
  Decade of dilution: 0
E. coli DNA; 2.9M PDA in phosphate buffer, 30 days storage, 4 C., dark, HA avg ~10,000 mg/L
  Decade of dilution: 0
E. coli DNA; 2.9M PDA in phosphate buffer, 30 days storage, 25 C., dark, HA avg ~10,000 mg/L
  Decade of dilution: 1
E. coli DNA; 2.9M PDA in phosphate buffer, 30 days storage, 25 C., light, HA avg ~10,000 mg/L
  Decade of dilution: 1
E. coli DNA; 2.9M PDA in phosphate buffer, 30 days storage, −20 C., dark, HA avg ~10,000 mg/L
  Decade of dilution: 0
E. coli DNA; 2.9M PDA solutions freshly prepared (Day 0)
  Decade of dilution: 0
E. coli DNA
  Typical dilution decade for PCR: 1
  range of dilutions (dilution decade for PCR): 0-2
E. coli DNA; aqueous HA samples seeded with E. coli DNA
  PCR products imaged after gel electrophoresis (band intensity): often low and weak
